The values below are quoted from earlier work in US20110195946A1, “HIGH SOLID D[…]” (priority 2008, published 2011).

For data set [1] the following is noted: acute oral mammalian toxicity.
For data set [2] the following is noted: acute inhalation toxicity.

As a reminder, the LD50 is the dose expected to kill half of the subjects tested. For the molecule `N#Cc1c(-c2ccc(Cl)cc2)[nH]c(C(F)(F)F)c1Br` [Tralopyril, 4-bromo-2-(4-chlorophenyl)-5-(trifluoromethyl)-1H-pyrrole-3-carbonitrile], in data set [1], the LD50 was 28.7 mg/kg.

With `[O-][n+]1ccccc1[S][Zn][S]c1cccc[n+]1[O-]` [zinc pyrithione, bis(2-pyridylthio)zinc 1,1′ dioxide], the “LC50 (4 h)” value in data set [2] is 1.03 µg/mL.
